For the assay, the target named is ROCK2 (Homo sapiens, UniProt O75116). Briefly: ROCK2 kinase inhibition assay (Caliper LABCHIP, FITC peptide substrate). Type of assay: biochemical. The settings on record: 5 μM ATP, 1.5 μM peptide substrate; value ranges. How it is done: The effectiveness of compounds of the present invention as ROCK inhibitors can be determined in a 30 μL assay containing 20 mM HEPES, pH 7.5, 20 mM MgCl2, 0.015% Brij-35, 4 mM DTT, 5 μM ATP and 1.5 μM peptide substrate (FITC-AHA-AKRRRLSSLRA-OH). Compounds were dissolved in DMSO so that the final concentration of DMSO was <2%, and the reaction was initiated with Rho kinase variants. After incubation, the reaction was terminated by the addition of EDTA and the phosphorylated and non-phosphorylated peptides separated using a LABCHIP® 3000 Reader (Caliper Life Sciences). […] Compounds were tested in dose-response format, and the inhibition of kinase activity was calculated at each concentration of compound. The inhibition data were fit using a curve-fitting program to determine the IC50; i.e., the concentration of compound required to inhibit 50% of kinase activity.
ROCK2, sequence (O75116 whole entry, species assumed): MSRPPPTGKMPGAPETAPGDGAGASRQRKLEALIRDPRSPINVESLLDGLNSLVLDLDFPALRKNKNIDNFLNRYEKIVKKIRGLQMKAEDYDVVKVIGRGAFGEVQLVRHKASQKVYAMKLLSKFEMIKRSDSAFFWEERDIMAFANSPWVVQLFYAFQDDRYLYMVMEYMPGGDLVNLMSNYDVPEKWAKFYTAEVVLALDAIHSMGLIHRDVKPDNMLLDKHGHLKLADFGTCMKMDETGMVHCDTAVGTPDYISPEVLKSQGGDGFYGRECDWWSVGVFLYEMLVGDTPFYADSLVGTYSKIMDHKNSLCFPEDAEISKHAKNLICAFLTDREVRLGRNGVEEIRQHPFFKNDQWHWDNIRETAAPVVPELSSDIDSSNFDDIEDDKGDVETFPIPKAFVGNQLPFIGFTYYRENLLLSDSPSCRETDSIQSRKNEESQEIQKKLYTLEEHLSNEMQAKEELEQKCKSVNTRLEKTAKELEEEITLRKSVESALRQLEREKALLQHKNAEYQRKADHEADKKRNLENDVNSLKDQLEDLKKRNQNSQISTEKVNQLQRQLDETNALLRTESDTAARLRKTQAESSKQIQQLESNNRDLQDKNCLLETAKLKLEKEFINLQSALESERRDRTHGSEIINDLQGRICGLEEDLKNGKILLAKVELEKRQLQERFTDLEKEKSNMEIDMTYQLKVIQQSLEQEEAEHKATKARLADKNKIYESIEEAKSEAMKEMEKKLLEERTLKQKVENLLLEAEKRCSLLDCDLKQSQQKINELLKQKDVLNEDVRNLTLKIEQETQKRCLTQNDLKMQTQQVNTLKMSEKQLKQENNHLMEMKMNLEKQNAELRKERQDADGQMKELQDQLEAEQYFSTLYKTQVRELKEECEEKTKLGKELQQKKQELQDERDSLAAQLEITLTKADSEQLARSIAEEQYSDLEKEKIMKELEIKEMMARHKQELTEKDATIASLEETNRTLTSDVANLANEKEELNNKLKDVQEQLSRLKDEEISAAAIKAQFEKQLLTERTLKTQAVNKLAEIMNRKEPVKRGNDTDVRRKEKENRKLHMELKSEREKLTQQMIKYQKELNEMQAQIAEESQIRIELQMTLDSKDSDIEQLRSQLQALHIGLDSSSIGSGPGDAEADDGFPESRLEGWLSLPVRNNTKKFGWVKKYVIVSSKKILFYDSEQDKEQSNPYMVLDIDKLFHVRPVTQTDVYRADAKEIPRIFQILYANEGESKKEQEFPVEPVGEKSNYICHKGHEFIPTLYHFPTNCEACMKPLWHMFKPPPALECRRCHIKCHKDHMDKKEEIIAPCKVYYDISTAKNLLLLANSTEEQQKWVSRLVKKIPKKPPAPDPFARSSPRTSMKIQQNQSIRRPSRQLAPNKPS
Representative Examples were tested in the ROCK2 assay described above and found having ROCK inhibitory activity.
Broadly, the IC50 is the concentration that gives 50% inhibition. Compound `COc1cccc(CN2CCN(c3ccc(-c4ccnc5[nH]ccc45)cc3)C2=O)c1` [Example 65, 1-(4-(1H-Pyrrolo[2,3-b]pyridin-4-yl)phenyl)-3-(3-methoxybenzyl)imidazolidin-2-one] displayed an IC50 of 0.0021 to 0.02 µM.
With `COc1nc(-n2ccn(Cc3cccc(F)c3F)c2=O)ccc1-c1cn[nH]c1` [Example 375, 1-(2,3-difluorobenzyl)-3-(6-methoxy-5-(1H-pyrazol-4-yl)pyridin-2-yl)-1H-imidazol-2(3H)-one], the IC50 was in the range of 0.0021 to 0.02 µM.
The figure for `Cc1cc(N2CCN(Cc3cccc(OCC4CC4)c3)C2=O)ccc1-c1cn[nH]c1` [Example 284, 1-(3-(cyclopropylmethoxy)benzyl)-3-(3-methyl-4-(1H-pyrazol-4-yl)phenyl)imidazolidin-2-one] is 0.0201 to 0.2 µM; for `COc1cccc(CN2CCN(c3ccc(-c4cn[nH]c4)c(C)c3)C2=O)c1` [Example 273, 1-(3-methoxybenzyl)-3-(3-methyl-4-(1H-pyrazol-4-yl)phenyl)imidazolidin-2-one] it is 0.0021 to 0.02 µM.
For `COc1nc(-n2ccn(Cc3cc(F)ccc3C)c2=O)ccc1-c1cn[nH]c1` [Example 382, 1-(5-fluoro-2-methylbenzyl)-3-(6-methoxy-5-(1H-pyrazol-4-yl)pyridin-2-yl)-1H-imidazol-2(3H)-one], the IC50 was in the range of 0.0021 to 0.02 µM.
Under `COc1ccc(F)c(CN2CCN(c3ccc(-c4cn[nH]c4)c(OC)n3)C2=O)c1` [Example 221, 1-(2-fluoro-5-methoxybenzyl)-3-(6-methoxy-5-(1H-pyrazol-4-yl)pyridin-2-yl)imidazolidin-2-one] stands under 0.002 µM; under `COc1cc(CN2CCN(c3ccc(-c4cn[nH]c4)cn3)C2=O)ccc1F` [Example 429, 1-(5-(1H-pyrazol-4-yl)pyridin-2-yl)-3-(4-fluoro-3-methoxybenzyl)imidazolidin-2-one], 0.0021 to 0.02 µM; under `O=C1N(Cc2cccc(OCC3CC3)c2)CCN1c1ccc(-c2cn[nH]c2)nc1` [Example 441, 1-(6-(1H-pyrazol-4-yl)pyridin-3-yl)-3-(3-(cyclopropylmethoxy)benzyl)imidazolidin-2-one], 0.2 to 2 µM.
The figure for `CCc1nc(-n2ccn(C(C)c3cc(F)cc(OC)c3)c2=O)ccc1-c1cn[nH]c1` (single isomer, unassigned) [Example 363, 1-(6-ethyl-5-(1H-pyrazol-4-yl)pyridin-2-yl)-3-(1-(3-fluoro-5-methoxyphenyl)ethyl)-1H-imidazol-2(3H)-one] is 0.2 to 2 µM; for `COc1cc(N2CCN(Cc3ccccc3F)C2=O)ccc1-c1cn[nH]c1` [Example 17, 1-(2-Fluorobenzyl)-3-(3-methoxy-4-(1H-pyrazol-4-yl)phenyl)imidazolidin-2-one] it is 0.0201 to 0.2 µM; for `COc1cc(F)cc(Cn2ccn(-c3ccc(-c4cn[nH]c4)c(C)n3)c2=O)c1` [Example 185, 1-(3-fluoro-5-methoxy-benzyl)-3-(6-methyl-5-(1H-pyrazol-4-yl)pyridin-2-yl)-1H-imidazol-2(3H)-one] it is 0.0021 to 0.02 µM.
Take `COc1cccc(C(C)n2ccn(-c3ccc(-c4cn[nH]c4)cc3)c2=O)c1` (single isomer, unassigned) [Example 339, 1-(4-(1H-pyrazol-4-yl)phenyl)-3-(1-(3-methoxyphenyl)ethyl)-1H-imidazol-2(3H)-one]: the half-maximal inhibitory concentration (IC50) was under 0.002 µM.
The figure for `COc1cc(F)cc(C(C)N2CCN(c3ccc(-c4cn[nH]c4)c(OC)n3)C2=O)c1` (single isomer, unassigned) [Example 228, 1-(1-(3-fluoro-5-methoxyphenyl)ethyl)-3-(6-methoxy-5-(1H-pyrazol-4-yl)pyridin-2-yl)imidazolidin-2-one] is under 0.002 µM.
On to `COc1nc(N2CCN(Cc3cccc(F)c3C)C2=O)ccc1-c1cn[nH]c1` [Example 248, 1-(3-fluoro-2-methylbenzyl)-3-(6-methoxy-5-(1H-pyrazol-4-yl)pyridin-2-yl)imidazolidin-2-one], for which the IC50 was under 0.002 µM.
The compound `O=c1n(Cc2ccc(F)cc2F)ccn1-c1ccc(-c2cn[nH]c2)cc1` [Example 409, 1-(4-(1H-pyrazol-4-yl)phenyl)-3-(2,4-difluorobenzyl)-1H-imidazol-2(3H)-one] gave an IC50 of 0.0201 to 0.2 µM.
With `COc1c(F)cccc1CN1CCN(c2ccc(-c3cn[nH]c3)cc2)C1=O` [Example 264, 1-(4-(1H-pyrazol-4-yl)phenyl)-3-(3-fluoro-2-methoxybenzyl)imidazolidin-2-one], the IC50 was 0.0201 to 0.2 µM.
Under `COc1nc(-n2ccn(Cc3cccc(OC(F)F)c3)c2=O)ccc1-c1cn[nH]c1` [Example 419, 1-(3-(difluoromethoxy)benzyl)-3-(6-methoxy-5-(1H-pyrazol-4-yl)pyridin-2-yl)-1H-imidazol-2(3H)-one] stands under 0.002 µM.
The figure for `COc1cccc(CN2CCN(c3ccc(-c4cn[nH]c4)cn3)C2=O)c1F` [Example 427, 1-(5-(1H-pyrazol-4-yl)pyridin-2-yl)-3-(2-fluoro-3-methoxybenzyl)imidazolidin-2-one] is 0.0201 to 0.2 µM; for `O=C1N(CCc2ccccc2)CCN1c1ccc(-c2ccncc2F)cc1` [Example 53, 1-(4-(3-fluoropyridin-4-yl)phenyl)-3-phenethylimidazolidin-2-one] it is 0.2 to 2 µM; for `O=C1N(Cc2cccnc2)CCN1c1ccc(-c2cn[nH]c2)cn1` [Example 242, 1-(5-(1H-pyrazol-4-yl)pyridin-2-yl)-3-(pyridin-3-ylmethyl)imidazolidin-2-one] it is 0.2 to 2 µM.
Take `COc1cccc([C@@H](C)N2CCN(c3ccc(-c4cn[nH]c4)cc3OC)C2=O)c1` [Example 14, (R)-1-(2-Methoxy-4-(1H-pyrazol-4-yl)phenyl)-3-(1-(3-methoxyphenyl)ethyl)imidazolidin-2-one]: the IC50 was 0.0201 to 0.2 µM.
`CC(c1ccccc1)N1CC(=O)N(c2ccc(-c3cn[nH]c3)cc2)C1=O` (centres unmarked) [Example 95, 3-(4-(1H-pyrazol-4-yl)phenyl)-1-(1-phenylethyl)imidazolidine-2,4-dione] registered a half-inhibitory concentration (IC50) of 0.0201 to 0.2 µM.
The figure for `O=C(O)C1CN(Cc2cccc(F)c2)C(=O)N1c1ccc(-c2cn[nH]c2)cc1` (centres unmarked) [Example 33, 3-(4-(1H-Pyrazol-4-yl)phenyl)-1-(3-fluorobenzyl)-2-oxoimidazolidine-4-carboxylic Acid] is 0.2 to 2 µM; for `COC(=O)CC(c1cccc(OC)c1)N1CCN(c2ccc(-c3cn[nH]c3)c(OC)c2)C1=O` (centres unmarked) [Example 20, Methyl 3-(3-(3-methoxy-4-(1H-pyrazol-4-yl)phenyl)-2-oxoimidazolidin-1-yl)-3-(3-methoxyphenyl)propanoate] it is 0.2 to 2 µM.
The figure for `CNCC(c1cccc(OC)c1)N1CCN(c2ccc(-c3cn[nH]c3)cc2)C1=O` (single isomer, unassigned) [Example 309, 1-(4-(1H-Pyrazol-4-yl)phenyl)-3-(1-(3-methoxyphenyl)-2-(methylamino)ethyl)imidazolidin-2-one] is 0.0201 to 0.2 µM; for `COc1cccc(CN2CC(C(=O)O)N(c3ccc(-c4cn[nH]c4)cc3)C2=O)c1` (centres unmarked) [Example 35, 3-(4-(1H-Pyrazol-4-yl)phenyl)-1-(3-methoxybenzyl)-2-oxoimidazolidine-4-carboxylic Acid] it is 0.0201 to 0.2 µM.
For the compound `COc1cc(F)cc(CN2C(=O)CN(c3ccc(-c4cn[nH]c4)cc3)C2=O)c1` [Example 107, 1-(4-(1H-pyrazol-4-yl)phenyl)-3-(3-fluoro-5-methoxy-benzyl)imidazolidine-2,4-dione], the half-maximal inhibitory concentration (IC50) was 0.0021 to 0.02 µM.
For the compound `COc1cc(N2CC(=O)N(Cc3cccc(F)c3)C2=O)ccc1-c1cn[nH]c1` [Example 100, 3-(3-fluorobenzyl)-1-(3-methoxy-4-(1H-pyrazol-4-yl)phenyl)imidazolidine-2,4-dione], the IC50 was in the range of 0.0201 to 0.2 µM.
`COc1cccc(F)c1CN1CCN(c2ccc(-c3cn[nH]c3)c(F)c2)C1=O` [Example 431, 1-(3-fluoro-4-(1H-pyrazol-4-yl)phenyl)-3-(2-fluoro-6-methoxybenzyl)imidazolidin-2-one] came in with an IC50 of 0.0201 to 0.2 µM.
Under `COc1nc(-n2ccn(CC3CCCCC3)c2=O)ccc1-c1cn[nH]c1` [Example 420, 1-(cyclohexylmethyl)-3-(6-methoxy-5-(1H-pyrazol-4-yl)pyridin-2-yl)-1H-imidazol-2(3H)-one] stands 0.0201 to 0.2 µM; under `CCc1nc(-n2ccn(C(C)c3ccc(F)c(OC)c3)c2=O)ccc1-c1cn[nH]c1` (single isomer, unassigned) [Example 388, 1-(6-ethyl-5-(1H-pyrazol-4-yl)pyridin-2-yl)-3-(1-(4-fluoro-3-methoxyphenyl)ethyl)-1H-imidazol-2(3H)-one], 0.0021 to 0.02 µM; under `O=C1CN(Cc2ccccc2F)C(=O)N1c1ccc(-c2cn[nH]c2)cc1` [Example 86, 3-(4-(1H-pyrazol-4-yl)phenyl)-1-(2-fluorobenzyl)imidazolidine-2,4-dione], 0.2 to 2 µM.
On to `O=C1CN(c2ccc(-c3cn[nH]c3)cc2)C(=O)N1CCc1ccccc1` [Example 113, 1-(4-(1H-pyrazol-4-yl)phenyl)-3-phenethyl-imidazolidine-2,4-dione], for which the half-maximal inhibitory concentration (IC50) was in the range of 0.0201 to 0.2 µM.
Compound `O=C(O)c1cccc(CN2CCN(c3ccc(-c4cn[nH]c4)cn3)C2=O)c1` [Example 239, 3-((3-(5-(1H-pyrazol-4-yl)pyridin-2-yl)-2-oxoimidazolidin-1-yl)methyl)benzoic acid] returned an IC50 of 0.0201 to 0.2 µM.
The figure for `CCOc1cccc(C(C)n2ccn(-c3ccc(-c4cn[nH]c4)cn3)c2=O)c1` (single isomer, unassigned) [Example 370, 1-(5-(1H-pyrazol-4-yl)pyridin-2-yl)-3-(1-(3-ethoxyphenyl)ethyl)-1H-imidazol-2(3H)-one] is 0.0021 to 0.02 µM.

Values taken from US10123993B2, “Cyclic ureas as inhibitors of rock” (BRISTOL-MYERS SQUIBB COMPANY, priority 2015, dated 2018).
